The values that follow come from PubChem BioAssay AID1996.

The term kinetic solubility denotes solubility judged after dilution from a stock solution rather than from solid.

In brackets after ≈: the same amount, converted by molar mass. A value given as a limit tells only on which side of the number the result lay.

The conditions of this series: buffer; pH 7.4; 200.0 µM.
In turn, `COc1ccc(OCC(=O)Nc2ccc3nc(C)sc3c2)cc1` gave a solubility (kinetic) of 15.8 µg/mL (≈ 48.1 µM).

Compound `COc1ccc(C2(C)NC(=O)N(CC3CCCCC3)C2=O)cc1` (configuration not stated) yielded a kinetic solubility of over 47.5 µg/mL.

For `O=C(CSCc1ccccc1F)NCc1ccccc1`, the solubility (kinetic) was over 43.4 µg/mL.

Compound `Cc1[nH]c2c(ccc3cccnc32)c1C` had a solubility (kinetic) of 19.4 µg/mL (≈ 98.9 µM).

As for `CC(NC(=O)c1ccc2ccccc2n1)c1ccccc1` (configuration not stated), the solubility (kinetic) was 18.9 µg/mL (≈ 68.4 µM).

As to `O=C(NCCc1c[nH]c2ccccc12)c1ccc2c(c1)OCO2`, the kinetic solubility came to 44.5 µg/mL (≈ 144 µM).

In the case of `COC(=O)c1ccc(CNC(=O)c2ccc(S(=O)(=O)N3CCCCCC3)cc2)cc1`, the solubility (kinetic) was 3.6 µg/mL (≈ 8.36 µM). Against the preceding compound, the solubility kinetic is about 12-fold lower.

Regarding `Cc1cccc(C)c1OCC(O)CN1CCc2ccccc2C1.Cl` (configuration not stated), the solubility (kinetic) was over 52.2 µg/mL.

In turn, `CCc1nc(Nc2cccc(F)c2)c2oc3ccccc3c2n1.Cl` displayed a solubility (kinetic) of under 0.2 µg/mL.

The compound `Cc1ccc(OCC(=O)O/N=C(\N)c2ccncc2)c(C)c1` gave a solubility (kinetic) of 30.9 µg/mL (≈ 103 µM).

For the compound `CC(=O)N1CCN(C(=O)COC(=O)/C=C/c2ccccc2[N+](=O)[O-])CC1`, the kinetic solubility was over 54.2 µg/mL.

Take `CCC(C)(C)C(=O)Nc1cccc(Cl)c1C`: the kinetic solubility was over 36 µg/mL.

`CCC(C)c1ccc(NC(=S)N2CCN(c3ccccn3)CC2)cc1` (configuration not stated) returned a kinetic solubility of 2.6 µg/mL (≈ 7.33 µM).

`Cc1ccc(NC(=O)CCC(=O)Nc2ccc(C)cc2)cc1`: the solubility (kinetic) is under 0.3 µg/mL.

`CN1CCN(c2nc(-c3ccc(Cl)c(Cl)c3)nc3ccccc23)CC1` returned a solubility (kinetic) of 0.4 µg/mL (≈ 1.07 µM).

`N#CCNC1CC(=O)N(c2ccc(F)cc2)C1=O` (configuration not stated) came in with a solubility (kinetic) of 29.9 µg/mL (≈ 121 µM). This solubility kinetic is about 75-fold higher than that of the compound before.

`CCOc1ccc(S(=O)(=O)N2CCN(C(=O)c3ccncc3)CC2)cc1` showed a solubility (kinetic) of over 56.3 µg/mL.

The compound `Nn1c(SCC(=O)NC2CCS(=O)(=O)C2)nnc1-c1ccco1` (configuration not stated) came in with a solubility (kinetic) of over 53.6 µg/mL.

`CCOc1ccc(/C=C2\SC(=S)N(C)C2=O)cc1OC` showed a kinetic solubility of under 0.7 µg/mL.

For `N/C(=N\OC(=O)c1cccs1)c1cccc(Br)c1`, the kinetic solubility was 8.5 µg/mL (≈ 26.1 µM).

Consider `COc1cccc(C(=O)Nc2ccccc2C(=O)NC2CC2)c1`, for which the kinetic solubility is 11.9 µg/mL (≈ 38.3 µM). The solubility kinetic values of the last two compounds are within 1.5-fold of each other.

As for `CC(C)c1ccc(NC(=O)CCC(=O)NCc2ccco2)cc1`, the solubility (kinetic) was 5.1 µg/mL (≈ 16.2 µM).

`COc1ccc(C(=O)NCCCCc2ccccc2)cc1` registered a kinetic solubility of 2.9 µg/mL (≈ 10.2 µM).

`O=C(CCc1ccccc1)NCc1ccc2c(c1)OCO2` had a solubility (kinetic) of over 42.5 µg/mL.

In the case of `COc1ccccc1C1CCN(c2ccc([N+](=O)[O-])cn2)CC1`, the kinetic solubility was under 0.2 µg/mL.

The compound `CC(=O)c1ccc(OCCCOc2cccc3cccnc23)cc1` displayed a kinetic solubility of 12.2 µg/mL (≈ 38 µM).

Turning to `CSc1ncc(CN2CCc3c([nH]c4ccccc34)C2C(C)(C)C)cn1` (configuration not stated), the kinetic solubility amounted to 19.5 µg/mL (≈ 53.2 µM).

Take `CC1CCN(S(=O)(=O)c2ccc(Cl)s2)CC1`: the solubility (kinetic) is 15.3 µg/mL (≈ 54.7 µM).

Regarding `Cc1ccc(Nc2nc(-c3cccs3)cs2)nc1`, the kinetic solubility turned out to be 0.8 µg/mL (≈ 2.93 µM).

Consider `O=C(O)c1ccc(N2C(=O)CSC2c2cccc([N+](=O)[O-])c2)cc1` (configuration not stated), for which the kinetic solubility is over 51.7 µg/mL.

`O=C(Nc1ccncc1)Nc1ccncc1` gave a solubility (kinetic) of over 32.1 µg/mL.

`CCN1CCN(c2ncnc3scc(-c4ccc(C)c(C)c4)c23)CC1` yielded a kinetic solubility of over 52.9 µg/mL.

Consider `CC(C)(C)C1CCc2onc(C(=O)O)c2C1` (configuration not stated), for which the solubility (kinetic) is over 33.5 µg/mL.

`O=C(CCCCC(=O)N1CCOCCOCCOCC1)OCc1ccccc1` registered a kinetic solubility of 56.1 µg/mL (≈ 143 µM).

On to `Cc1ccccc1-c1nc(C#N)c(N2CCC(C)CC2)o1`, for which the solubility (kinetic) was under 0.2 µg/mL.

`O=C(/C=C/c1cccc([N+](=O)[O-])c1)N1CCN(Cc2ccccc2)CC1` displayed a kinetic solubility of 50.9 µg/mL (≈ 145 µM).

`COc1ccccc1C(=O)Nc1c(-c2ccccc2)nc2ccccn12`: the solubility (kinetic) worked out at 10 µg/mL (≈ 29.1 µM). This solubility kinetic lies about 5.1-fold lower than the previous one.

Compound `O=C(c1ccccc1F)N1CCOCC1` came in with a kinetic solubility of over 31.4 µg/mL.

The compound `O=C(COc1ncnc2ccccc12)NCCc1ccc(F)cc1` had a solubility (kinetic) of 41.9 µg/mL (≈ 129 µM).

In the case of `COc1ccc(CNC(=O)c2cccc(NC(=O)CC3SC(N4CCCCC4)=NC3=O)c2)cc1` (configuration not stated), the solubility (kinetic) is 7.6 µg/mL (≈ 15.8 µM).

For the compound `S=C(NCc1ccc(Cl)cc1)Nc1ccncc1`, the kinetic solubility is over 41.7 µg/mL.

Regarding `Cc1ccc(S(=O)(=O)/N=C(/Nc2c(C)cccc2C)c2ccccc2)cc1`, the solubility (kinetic) amounted to 7.3 µg/mL (≈ 19.3 µM).

Consider `CC(=O)Nc1nc(-c2ccc3ccccc3c2)cs1`, for which the kinetic solubility is under 0.3 µg/mL.

Compound `O=Cc1ccc2c(c1)CCN2Cc1ccccc1` gave a solubility (kinetic) of 15.2 µg/mL (≈ 64.1 µM).

Consider `CC1=C(C)CC(C(=O)NCc2ccccc2F)C(C(=O)O)C1` (configuration not stated), for which the kinetic solubility is over 45.8 µg/mL.

On to `CC(=O)c1c(C)n(CC(=O)NCc2ccco2)c2ccccc12`, for which the kinetic solubility is 18.5 µg/mL (≈ 59.6 µM).

As for `Cc1ccc(C(=O)NCC(=O)N(C)Cc2cccc(F)c2)s1`, the solubility (kinetic) was over 48.1 µg/mL.

Compound `O=C(Nc1ccc(Cl)c([N+](=O)[O-])c1)ONC1=NCCCCC1` registered a kinetic solubility of 42.4 µg/mL (≈ 130 µM).

`COC(=O)c1cccc(NC(=S)N2CCN(C)CC2)c1`: the kinetic solubility was determined as 41.9 µg/mL (≈ 143 µM).

The compound `COc1ccc(NC(=O)CC(NC(C)c2ccccc2)C(=O)O)cc1` (configuration not stated) registered a kinetic solubility of 44.2 µg/mL (≈ 129 µM).

As to `O=S(=O)(c1cc(Cl)ccc1Cl)N1CCN2CCCC2C1` (configuration not stated), the solubility (kinetic) was found to be 47.5 µg/mL (≈ 142 µM).

Consider `Cc1cc(C(=O)COc2cccc([N+](=O)[O-])c2)c(C)n1C1CC1`, for which the solubility (kinetic) was determined as 6.2 µg/mL (≈ 19.7 µM).
